ChEMBL document CHEMBL1201862, “PubChem BioAssay data set” (2004)
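All cell lines were grown in 96-well plates and treated with compound for 48 hours. GI50: concentration for 50% inhibition of growth.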 The source made the active and inactive calls. Cut-off read from the data, not from the text of the source: active = GI50 up to about 1.1 µM and inactive = higher.

Tests used:
Assay in all cases: DTP human tumour cell line panel, 48 h
DLD-1 = tested on: DLD-1
OVCAR-8 = tested on: OVCAR-8
HOP-62 = tested on: HOP-62
M14 = tested on: M14
OVCAR-4 = tested on: OVCAR-4
HT-29 = tested on: HT-29
NCI-H460 = tested on: NCI-H460
EKVX = tested on: EKVX
786-0 = tested on: 786-0
NCI-H23 = tested on: NCI-H23
NCI-H522 = tested on: NCI-H522
HCC 2998 = tested on: HCC 2998
SNB-19 = tested on: SNB-19
OVCAR-5 = tested on: OVCAR-5
NCI-H226 = tested on: NCI-H226
SK-MEL-2 = tested on: SK-MEL-2
DU-145 = tested on: DU-145
MDA-N = tested on: MDA-N
T47D = tested on: T47D
BT-549 = tested on: BT-549

Structure (SMILES)	GI50 (DLD-1)	GI50 (OVCAR-8)	GI50 (HOP-62)	GI50 (M14)	GI50 (OVCAR-4)	GI50 (HT-29)	GI50 (NCI-H460)	GI50 (EKVX)	GI50 (786-0)	GI50 (NCI-H23)	GI50 (NCI-H522)	GI50 (HCC 2998)	GI50 (SNB-19)	GI50 (OVCAR-5)	GI50 (NCI-H226)	GI50 (SK-MEL-2)	GI50 (DU-145)	GI50 (MDA-N)	GI50 (T47D)	GI50 (BT-549)
COc1ccc(/C=C2\CCCCC2=O)cc1	> 100 µM (inactive)	> 100 µM (inactive)	> 100 µM (inactive)	> 100 µM (inactive)	> 100 µM (inactive)	> 100 µM (inactive)	> 100 µM (inactive)	> 100 µM (inactive)	> 100 µM (inactive)	> 100 µM (inactive)	–	–	–	–	–	–	–	–	–	–
[O-]c1c2cc(-[n+]3c(-c4ccccc4)cc(-c4ccccc4)cc3-c3ccccc3)cc1COCCOCCOCCOCCOC2	44 µM (inactive)	31.5 µM (inactive)	37 µM (inactive)	37.4 µM (inactive)	59.4 µM (inactive)	35.6 µM (inactive)	–	33.9 µM (inactive)	54.5 µM (inactive)	41.9 µM (inactive)	35.6 µM (inactive)	41.7 µM (inactive)	73.5 µM (inactive)	> 100 µM (inactive)	> 100 µM (inactive)	21.7 µM (inactive)	–	–	–	–
O=c1[nH]c2cc([N+](=O)[O-])ccc2nc1/C(=N/Nc1ccccc1)C(O)c1ccccc1Cl (configuration not stated)	> 100 µM (inactive)	> 100 µM (inactive)	62.5 µM (inactive)	47.3 µM (inactive)	79.8 µM (inactive)	46 µM (inactive)	49.2 µM (inactive)	67.3 µM (inactive)	> 100 µM (inactive)	90.8 µM (inactive)	4.68 µM (inactive)	22.3 µM (inactive)	> 100 µM (inactive)	95.5 µM (inactive)	80.2 µM (inactive)	> 100 µM (inactive)	–	–	–	–
COc1cccc(C2c3cc4c(cc3OC(O)(CO)C2C(=O)O)OCO4)c1.COc1cccc(C2c3cc4c(cc3OC3(O)COC(=O)C23)OCO4)c1 (configuration not stated)	48.9 µM (inactive)	46 µM (inactive)	> 100 µM (inactive)	48.8 µM (inactive)	37 µM (inactive)	37.7 µM (inactive)	21.2 µM (inactive)	42.8 µM (inactive)	> 100 µM (inactive)	43.5 µM (inactive)	–	> 100 µM (inactive)	–	> 100 µM (inactive)	50 µM (inactive)	> 100 µM (inactive)	–	–	–	–
O=[N+]([O-])c1ccc(-c2ccc(/C=N/n3c(S)nnc3-c3ccc(Cl)cc3)o2)cc1	41.6 µM (inactive)	> 50 µM (inactive)	17.5 µM (inactive)	16.1 µM (inactive)	> 38.1 µM (inactive)	22 µM (inactive)	21.5 µM (inactive)	> 100 µM (inactive)	19.2 µM (inactive)	27.2 µM (inactive)	28.6 µM (inactive)	> 72.4 µM (inactive)	23 µM (inactive)	> 100 µM (inactive)	> 38.6 µM (inactive)	34.2 µM (inactive)	–	–	–	–
O=[N+]([O-])c1cccc(C2=NN(c3ccccc3)C3c4ccccc4OCC23)c1 (configuration not stated)	> 100 µM (inactive)	> 100 µM (inactive)	> 100 µM (inactive)	–	–	> 100 µM (inactive)	> 100 µM (inactive)	> 100 µM (inactive)	> 100 µM (inactive)	> 100 µM (inactive)	62.1 µM (inactive)	> 100 µM (inactive)	> 100 µM (inactive)	> 100 µM (inactive)	–	> 100 µM (inactive)	–	–	–	–
Cc1ccc(Nc2nc(-c3ccc(-c4ccc([N+](=O)[O-])cc4)o3)cs2)cc1	41.4 µM (inactive)	40.6 µM (inactive)	> 100 µM (inactive)	> 100 µM (inactive)	63.1 µM (inactive)	28.4 µM (inactive)	44 µM (inactive)	–	68.5 µM (inactive)	25.6 µM (inactive)	–	23.4 µM (inactive)	> 100 µM (inactive)	59 µM (inactive)	48.3 µM (inactive)	> 100 µM (inactive)	–	–	–	–
Cc1cc(N(CCC#N)CCC#N)ccc1/C=C/C(=O)Nc1cccc(Cl)c1	> 100 µM (inactive)	> 100 µM (inactive)	> 100 µM (inactive)	> 100 µM (inactive)	58.6 µM (inactive)	> 100 µM (inactive)	> 100 µM (inactive)	> 100 µM (inactive)	> 100 µM (inactive)	> 100 µM (inactive)	62.7 µM (inactive)	> 100 µM (inactive)	> 100 µM (inactive)	> 100 µM (inactive)	> 100 µM (inactive)	> 100 µM (inactive)	–	–	–	–
C/C(CC(=O)Nc1cc(C)ccc1C)=N/N=C(N)N	> 100 µM (inactive)	> 100 µM (inactive)	> 100 µM (inactive)	> 100 µM (inactive)	–	> 100 µM (inactive)	> 100 µM (inactive)	> 100 µM (inactive)	> 100 µM (inactive)	> 100 µM (inactive)	> 100 µM (inactive)	> 100 µM (inactive)	–	> 100 µM (inactive)	> 100 µM (inactive)	> 100 µM (inactive)	–	–	–	–
N=C(N)NS(=O)(=O)c1ccc(NC(=O)c2cccc3c(Nc4ccc(S(=O)(=O)N=C(N)N)cc4)c4ccc(Cl)cc4nc23)cc1	67.1 µM (inactive)	61.2 µM (inactive)	58.6 µM (inactive)	70.1 µM (inactive)	80 µM (inactive)	> 100 µM (inactive)	76.2 µM (inactive)	96.8 µM (inactive)	> 100 µM (inactive)	> 100 µM (inactive)	30.4 µM (inactive)	79.3 µM (inactive)	48.4 µM (inactive)	> 100 µM (inactive)	–	> 100 µM (inactive)	–	–	–	–
CC(Cn1c2c3ccccc3ccc2c2oc(=O)c3ccccc3c21)N(C)C (configuration not stated)	> 100 µM (inactive)	> 100 µM (inactive)	–	> 100 µM (inactive)	> 100 µM (inactive)	> 100 µM (inactive)	> 100 µM (inactive)	> 100 µM (inactive)	> 100 µM (inactive)	> 100 µM (inactive)	> 100 µM (inactive)	–	> 100 µM (inactive)	> 100 µM (inactive)	–	> 100 µM (inactive)	–	–	–	–
Nc1ncnc2c1ncn2CCCC(c1ccccc1)P(=O)(O)O (configuration not stated)	> 100 µM (inactive)	> 100 µM (inactive)	–	–	–	> 100 µM (inactive)	> 100 µM (inactive)	> 100 µM (inactive)	> 100 µM (inactive)	> 100 µM (inactive)	> 100 µM (inactive)	> 100 µM (inactive)	> 100 µM (inactive)	> 100 µM (inactive)	> 100 µM (inactive)	> 100 µM (inactive)	–	–	–	–
O=S(O)CCCSSCCCCSSCCCS(=O)O	> 100 µM (inactive)	> 100 µM (inactive)	> 100 µM (inactive)	> 100 µM (inactive)	> 100 µM (inactive)	> 100 µM (inactive)	> 100 µM (inactive)	34.4 µM (inactive)	> 100 µM (inactive)	> 100 µM (inactive)	> 100 µM (inactive)	> 100 µM (inactive)	> 100 µM (inactive)	> 100 µM (inactive)	–	> 100 µM (inactive)	–	–	–	–
COC(=O)C(c1ccc(OC)cc1)N1C(=O)[C@@H](NC(=O)c2ccccc2)[C@H]1[C@@H](C)O (some centres not stated)	> 100 µM (inactive)	> 100 µM (inactive)	> 100 µM (inactive)	> 100 µM (inactive)	> 100 µM (inactive)	> 100 µM (inactive)	> 100 µM (inactive)	> 100 µM (inactive)	> 100 µM (inactive)	> 100 µM (inactive)	> 100 µM (inactive)	> 100 µM (inactive)	> 100 µM (inactive)	–	> 100 µM (inactive)	> 100 µM (inactive)	–	–	–	–
COC(OC)[C@@H](C)[C@H](O)[C@](C)(O)C1OC(C)(C)OC(C(C)C=C(C)C)C1C (some centres not stated)	> 100 µM (inactive)	> 100 µM (inactive)	> 100 µM (inactive)	> 100 µM (inactive)	> 100 µM (inactive)	> 100 µM (inactive)	> 100 µM (inactive)	> 100 µM (inactive)	> 100 µM (inactive)	> 100 µM (inactive)	> 100 µM (inactive)	–	> 100 µM (inactive)	> 100 µM (inactive)	> 100 µM (inactive)	> 100 µM (inactive)	–	–	–	–
CC1(C)CC[C@]2(C(=O)O)CCC3(C)C(=CCC4[C@@]5(C)CC[C@H](OC6OCC(O)C(O)C6OC6OC(CO)C(O)C(O)C6O)C(C)(C)C5CC[C@]43C)C2C1 (some centres not stated)	8.61 µM (inactive)	1.95 µM (inactive)	2.09 µM (inactive)	1.87 µM (inactive)	1.57 µM (inactive)	2.46 µM (inactive)	2.1 µM (inactive)	1.79 µM (inactive)	2.04 µM (inactive)	2.11 µM (inactive)	–	1.71 µM (inactive)	1.93 µM (inactive)	2.41 µM (inactive)	1.55 µM (inactive)	–	–	–	–	–
CC(=O)O[C@H]1C[C@H](O[C@H]2[C@@H](O)C[C@H](O[C@H]3[C@@H](O)C[C@H](O[C@H]4CC[C@@]5(C)[C@H](CC[C@@H]6[C@@H]5C[C@@H](O)[C@]5(C)[C@@H](C7=CC(=O)OC7)CC[C@]65O)C4)O[C@@H]3C)O[C@@H]2C)O[C@H](C)[C@H]1O[C@@H]1O[C@H](CO)[C@@H](O)[C@H](O)[C@H]1O [LANATOSIDE C]	–	0.0612 µM (active)	0.0264 µM (active)	0.147 µM (active)	0.0465 µM (active)	0.048 µM (active)	0.0138 µM (active)	0.0284 µM (active)	0.0322 µM (active)	0.0193 µM (active)	0.0137 µM (active)	0.148 µM (active)	0.168 µM (active)	0.0869 µM (active)	0.243 µM (active)	0.165 µM (active)	0.0313 µM (active)	0.156 µM (active)	0.0778 µM (active)	0.044 µM (active)
